Assay results taken from ChEMBL document CHEMBL1201862, “PubChem BioAssay data set” (2004).
Calls of active or inactive are those of the source.

Columns and labels:
[1] = off-target signal loss in HeLa-CEM21 co-culture – HeLa F-luc CTL cells, cherry-picked, counter-screen for HIV-1 Env fusion inhibitor project, dose response (AID 652040); format: functional, cell-based;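 further: potency for signal decrease marking cytotoxic or nonspecific inhibition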
P388/ADR = assay: cells; format: functional; details: Mus musculus
[2] = viability loss in CEM21 cells – cell-based, CellTiter-Glo luminescence, cherry-picked, cytotoxicity control for viral fusion inhibitor project, dose response (AID 652042); format: functional;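 further: potency for signal decrease meaning cytotoxicity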
SN12K1 = assay: cells; format: functional; details: Homo sapiens
[3] = non-specific 3'UTR reporter inhibition in Clone20-Shn3RL – cell-based, Renilla luciferase, cherry-picked, counter-screen for Shn3 inhibitor project, dose response (AID 624133); format: functional
P388 = assay: cells; format: functional; details: Mus musculus
Protein skinhead-1 = biological target: T1, Protein skinhead-1 (Caenorhabditis elegans, UniProt P34707); format: functional
T1 sequence (P34707 whole entry): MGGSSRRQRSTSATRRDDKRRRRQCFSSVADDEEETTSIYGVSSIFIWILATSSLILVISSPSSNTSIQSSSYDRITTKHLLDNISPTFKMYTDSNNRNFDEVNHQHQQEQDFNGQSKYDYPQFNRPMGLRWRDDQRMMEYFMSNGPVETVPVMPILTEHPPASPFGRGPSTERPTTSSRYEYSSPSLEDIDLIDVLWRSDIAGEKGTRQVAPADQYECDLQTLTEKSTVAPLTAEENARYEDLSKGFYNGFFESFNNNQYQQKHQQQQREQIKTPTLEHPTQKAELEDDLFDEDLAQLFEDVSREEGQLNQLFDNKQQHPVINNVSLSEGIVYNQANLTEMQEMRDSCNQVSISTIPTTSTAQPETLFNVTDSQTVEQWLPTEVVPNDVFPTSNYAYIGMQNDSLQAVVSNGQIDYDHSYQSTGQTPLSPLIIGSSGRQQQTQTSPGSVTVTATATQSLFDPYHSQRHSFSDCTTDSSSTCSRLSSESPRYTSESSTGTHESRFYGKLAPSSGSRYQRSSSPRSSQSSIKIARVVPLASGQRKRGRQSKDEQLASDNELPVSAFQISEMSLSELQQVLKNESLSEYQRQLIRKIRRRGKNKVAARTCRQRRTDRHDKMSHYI

[4] = loss of viability in HepG2 cells – cell-based, CellTiter-Glo, cherry-picked, cytotoxicity control for Shn3 inhibitor project, dose response (AID 624134); format: functional
Paired box protein Pax-8 = Paired box protein Pax-8 (Homo sapiens, UniProt Q06710); assay: PAX8 transcriptional activity inhibition in RMG-I – RMG-I cells, luciferase, cherry-pick, dose response (AID 687027); format: functional, cell-based;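 further: luciferase reporter driven by Pax8 target thyroperoxidase promoter measured by SteadyGlo luminescence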
[5] = reduction of Shn3 3'UTR-driven luciferase in osteoblasts – cell-based, Clone20 osteoblasts, firefly luciferase, cherry-picked, dose response (AID 624132); format: functional;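 further: firefly luciferase luminescence from reporter carrying the Shn3 3'UTR in osteoblasts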
[6] = blockers of HIV-1 envelope-mediated cell-cell fusion – cherry-pick, dose response (AID 652057); format: functional, cell-based
Mu-type opioid receptor = Mu-type opioid receptor (Homo sapiens, UniProt P35372); format: functional, cell-based;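 further: U2OS cells with beta-arrestin recruitment to OPRM1 by beta-gal complementation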
[7] = biological target: 5-hydroxytryptamine receptor 2A (Mus musculus, UniProt P35363); format: functional, cell-based;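 further: CHO-K1 cells with tagged receptor and beta-arrestin; agonist potency measured as compound-induced activation of the receptor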
[8] = biological target: NAD-dependent protein deacylase sirtuin-5, mitochondrial (Homo sapiens, UniProt Q9NXA8); assay: sirtuin-5 deacylation blockers, concentration series – biochemical, fluorescence imaging, cherry-pick, set 5, dose response (AID 720591);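 further: desuccinylation of succinyl peptide AMC substrate read as fluorescence after trypsin release; potency of inhibitors that lower fluorescence and may act on trypsin instead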
[9] = blockers of HIV-1 ZM109 envelope-driven cell-cell fusion – HeLa effector, CEM target cells, luciferase, cherry-pick, dose response (AID 652058); format: functional, cell-based;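 further: luciferase signal from HIV-1 Env mediated cell-cell fusion of effector and target cells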
[10] = HIV-1 AD8 envelope cell-cell fusion blockers – cherry-pick, dose response (AID 652062); format: functional, cell-based;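 further: luciferase signal from cell-cell fusion driven by HIV-1 clade B AD8 Env; potency is for inhibitors of fusion seen as a drop in luminescence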
[11] = microbe, parasite or virus in culture; format: functional; details: Mycobacterium tuberculosis
[12] = biological target: T2, High affinity choline transporter 1 (Homo sapiens, UniProt Q9GZV3); assay: human choline transporter blockers, potency – cell-based, 5-point CRC, membrane potential dye, dose response (AID 504840); format: functional
T2 sequence (Q9GZV3 whole entry): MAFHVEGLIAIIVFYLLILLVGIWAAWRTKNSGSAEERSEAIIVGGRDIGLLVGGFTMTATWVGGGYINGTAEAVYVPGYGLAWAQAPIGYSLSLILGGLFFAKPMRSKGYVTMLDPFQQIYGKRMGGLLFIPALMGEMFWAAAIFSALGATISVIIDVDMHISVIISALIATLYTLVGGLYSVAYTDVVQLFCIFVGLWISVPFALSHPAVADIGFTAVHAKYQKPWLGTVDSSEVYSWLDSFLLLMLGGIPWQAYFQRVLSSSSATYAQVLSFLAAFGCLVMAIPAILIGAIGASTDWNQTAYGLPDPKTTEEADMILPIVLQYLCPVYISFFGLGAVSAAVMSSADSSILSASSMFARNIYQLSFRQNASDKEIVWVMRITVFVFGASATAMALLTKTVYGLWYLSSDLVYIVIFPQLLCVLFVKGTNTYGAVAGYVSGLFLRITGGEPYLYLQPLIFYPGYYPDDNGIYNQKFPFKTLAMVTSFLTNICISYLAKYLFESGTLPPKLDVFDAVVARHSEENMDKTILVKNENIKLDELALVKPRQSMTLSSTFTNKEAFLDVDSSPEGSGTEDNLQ

NAD-dependent protein deacylase sirtuin-5, mitochondrial, sequence (Q9NXA8 whole entry, the tested form may be a part): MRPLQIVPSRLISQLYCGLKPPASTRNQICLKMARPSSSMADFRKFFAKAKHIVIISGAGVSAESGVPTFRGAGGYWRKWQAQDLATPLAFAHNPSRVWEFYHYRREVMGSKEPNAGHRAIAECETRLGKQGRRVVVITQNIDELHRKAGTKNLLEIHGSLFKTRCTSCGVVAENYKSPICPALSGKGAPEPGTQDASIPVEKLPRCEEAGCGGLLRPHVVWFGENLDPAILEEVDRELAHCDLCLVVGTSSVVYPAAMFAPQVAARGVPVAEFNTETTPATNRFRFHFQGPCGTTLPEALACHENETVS
Mu-type opioid receptor, sequence (P35372 whole entry): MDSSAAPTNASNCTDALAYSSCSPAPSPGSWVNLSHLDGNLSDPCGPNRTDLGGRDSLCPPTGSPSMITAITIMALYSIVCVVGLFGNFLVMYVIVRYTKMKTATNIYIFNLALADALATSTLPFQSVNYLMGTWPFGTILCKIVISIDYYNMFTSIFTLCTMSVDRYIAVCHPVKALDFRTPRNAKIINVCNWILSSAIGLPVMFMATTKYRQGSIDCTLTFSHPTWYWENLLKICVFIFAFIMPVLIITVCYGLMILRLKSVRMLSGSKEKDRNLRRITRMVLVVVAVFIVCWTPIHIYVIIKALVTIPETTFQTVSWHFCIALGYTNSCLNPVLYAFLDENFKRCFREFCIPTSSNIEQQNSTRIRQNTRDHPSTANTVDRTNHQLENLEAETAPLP
5-hydroxytryptamine receptor 2A, sequence (P35363 whole entry): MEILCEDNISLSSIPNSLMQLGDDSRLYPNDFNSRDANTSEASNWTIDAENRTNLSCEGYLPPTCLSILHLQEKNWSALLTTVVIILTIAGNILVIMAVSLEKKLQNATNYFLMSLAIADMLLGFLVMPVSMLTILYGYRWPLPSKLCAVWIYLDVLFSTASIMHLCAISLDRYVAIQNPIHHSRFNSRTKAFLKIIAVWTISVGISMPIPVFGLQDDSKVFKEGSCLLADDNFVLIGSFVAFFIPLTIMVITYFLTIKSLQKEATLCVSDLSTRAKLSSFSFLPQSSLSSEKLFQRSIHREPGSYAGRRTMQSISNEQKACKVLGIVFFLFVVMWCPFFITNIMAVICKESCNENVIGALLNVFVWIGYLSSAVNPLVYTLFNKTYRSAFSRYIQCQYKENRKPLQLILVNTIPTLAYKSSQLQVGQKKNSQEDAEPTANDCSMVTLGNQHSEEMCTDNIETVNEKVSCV
Paired box protein Pax-8, sequence (Q06710 whole entry): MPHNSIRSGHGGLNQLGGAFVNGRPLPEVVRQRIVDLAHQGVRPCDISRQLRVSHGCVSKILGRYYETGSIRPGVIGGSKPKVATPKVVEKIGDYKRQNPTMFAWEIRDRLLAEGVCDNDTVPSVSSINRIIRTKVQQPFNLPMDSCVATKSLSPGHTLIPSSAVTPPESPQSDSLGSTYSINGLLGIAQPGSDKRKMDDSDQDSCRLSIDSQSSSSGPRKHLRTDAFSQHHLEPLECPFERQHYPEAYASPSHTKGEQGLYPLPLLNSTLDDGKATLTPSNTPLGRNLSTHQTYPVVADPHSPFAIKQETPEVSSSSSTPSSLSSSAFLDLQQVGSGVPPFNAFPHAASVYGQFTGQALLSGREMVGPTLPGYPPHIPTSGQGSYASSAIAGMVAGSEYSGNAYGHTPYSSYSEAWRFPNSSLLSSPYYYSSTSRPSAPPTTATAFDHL

O=C1NC2C(=CC(O)C(O)C2O)c2cc3c(cc21)OCO3 (stereo not given)
AC50 [1]: 3.78 µM (active)
GI50 (P388/ADR): 0.0984 µM (active)
AC50 [2]: 0.738 µM (active)
GI50 (SN12K1): 0.234 µM (active)
AC50 [3]: 3.82 µM (active)
GI50 (P388): 0.115 µM (active)
IC50 (Protein skinhead-1): 64.3 µM (inactive)
AC50 [4]: 53.9 µM (active)
AC50 (Paired box protein Pax-8): 0.325 µM (active)
AC50 [5]: 2.22 µM (active)
AC50 [6]: 2.38 µM (active)

CC(C)OC(=O)CSc1nnc(SCc2cccc3ccccc23)s1
IC50 (Protein skinhead-1): > 100 µM (inactive)

O=C(CN1CCN(c2ccccn2)CC1)Nc1cccc(S(=O)(=O)N2CCCC2)c1
EC50 (Mu-type opioid receptor): 92.5 µM (inactive)
EC50 [7]: 9.85 µM (active)

O=C(Cn1c(=O)oc2ccccc21)Nc1cccc(Cl)c1
AC50 [8]: > 30 µM (inactive)

O=C(c1ccco1)N1CCN(Cc2ccc(Cl)cc2)CC1
EC50 (Mu-type opioid receptor): 92.5 µM (inactive)
EC50 [7]: 4.08 µM (active)

Cc1[nH]c2ccc(OC(F)(F)F)cc2c1CCNCc1ccc(Cl)cc1
AC50 [1]: 1.71 µM (active)
AC50 [2]: 9.56 µM (active)
AC50 [9]: 1.24 µM (active)
AC50 [10]: 5.12 µM (active)
CC50 [11]: 12.6 µM (active)
AC50 [6]: 0.838 µM (active)

Cc1nn(-c2ccccc2)c2nc(O)cc(C(F)(F)F)c12
AC50 [8]: > 30 µM (inactive)
IC50 [12]: 7.1 µM (active)

Brc1cccc(CN2CCN(c3ncccn3)CC2)c1
EC50 (Mu-type opioid receptor): 92.5 µM (inactive)
EC50 [7]: 0.352 µM (active)

COc1cccc(NC(=O)CN(C)CC(=O)Nc2ccc3c(c2)CCC3)c1
AC50 [8]: > 30 µM (inactive)

Fc1ccc2cc(-c3ccccc3)ncc2c1
IC50 (Protein skinhead-1): > 100 µM (inactive)

O=C(Nc1ccc(CN2CCOCC2)cc1)c1cc2ccccc2o1
IC50 (Protein skinhead-1): 15.4 µM (active)
